From patent publication US11826448B2, “Zinc-arginine-chloride complex” (Colgate-Palmolive Company, priority 2018, dated 2023)

System: keratinocyte cell line (Hacat)
Test: Wound healing efficacy: scratch assay on a keratinocyte monolayer culture
Assay type: cell-based
Method: Wound healing efficacy is determined by incubating a monolayer cell culture with ZBA.
Briefly, a keratinocyte cell line (Hacat) was cultured with full confluency in a 24 well plate. The cells are then scratched horizontally and vertically with a pipet tips to generate a wound. The cells are washed twice with 1 mL of PBS buffer, then full culture medium (supplemented with 10% FBS and 1% antibiotic) is added to the scratched cells. The ZBA solution obtained from Example 1 is diluted with full culture medium at a concentration of 5 ppm or 50 ppm. Culture wells are incubated at 37° C. at 5% CO2 for up to 72 hours with either the ZBA medium mixture or with medium alone. The area of the scratches is then compared by light microscopy at different time points up to 72 hrs.

[1] = ZBA solution diluted in full culture medium at 5 ppm or 50 ppm, 37° C., 5% CO2, up to 72 hours, light microscopy

## [Zn(Arginine)2Cl]^+Cl^− [ZBA]
[1]
  cell migration into the scratch wound compared to medium alone: greater cell migration
  cell proliferation compared to medium alone: faster proliferation
In the presence of ZBA, up to 72 hours
  morphology of the cells adjacent to the wound: improved
